Results on three compounds are retold here after US20110059154A1, “CCR5 ANTAGONISTS AS PROPHYLACTICS FOR PREVENTING HIV INFECTION AND METHODS OF INHIBITING TRANSMISSION OF SAME” (priority 2008, published 2011).

Broadly, the solubility is how much of the substance goes into solution per volume. What is called IC50 is the concentration needed to halve the response being measured. By CC50 is commonly meant the concentration that lowers cell viability or growth by half.

Data set [1] in a line: Thermogravimetric analysis (TGA), thermal stability. It counts as physicochemical. As for the experimental part: Thermogravimetric analysis (TGA) was conducted with a TGA Q500 from TA instruments. A typical experiment involved heating the material in a platinum pan under a nitrogen purge from 25° C. to 350° C. at 10° C. per minute. Data was analyzed using the Universal using the Universal Analysis software program from TA Instruments.
Thermogravimetric analysis (TGA) was performed on each form to evaluate the thermal stability and presence of any volatiles in the sample (FIG. 3). The onset of thermal degradation is estimated using the derivative of weigh loss curve and was measured as 276° C. and 270° C. for forms 1 and 2 respectively.

Data set [2] can be described thus: Competition slurry experiment, relative thermodynamic stability of forms 1 and 2. The class given is physicochemical. Particulars: slurry in 2-propanol and in MTBE, seeded with both forms, 1 week; PXRD and DSC. As to the method:
To assess the relative thermodynamic stability of forms 1 and 2, a competition slurry experiment was performed. In this experiment, the as received amorphous material was slurried in one vial containing 2-propanol and another containing MTBE. Seeds of both form 1 and form 2 were added to both vials and stirring continued for 1 week. The solid material was filtered from each vial and analyzed with PXRD and DSC.

A short description of data set [3]: Initial solubility assessment in solvents useful in making vaginal devices. It counts as physicochemical. The source says: Initial solubility assessments were made of Compounds 28A, 23 and 5L to evaluate compatibility in various solvents useful in making vaginal devices.
Another data set relates to HIV-1BaL. Nature of the data set: microbe, parasite or virus in culture. To be noted: Human immunodeficiency virus 1, TZM-bl, read-out: Inhibition of HIV Infection (TZM-bL cells using luciferase reporter) IC50-RS. The class given is cell-based.
Data set [4] is described as follows: Compound toxicity, MTT dye reduction. The class given is cell-based. Particulars: human, TZM-bL cells, mean ± D (n independent experiments), read-out: Cytotoxicity CC50 (TZM-bL). As for the experimental part: Determination of compound toxicity. The viability of cells (TZM-bI) and following treatment with the compound was determined by the principle of MTT dye reduction (see references cited in Fletcher et. al.). All data are expressed as the percentage of viability for compound-treated wells compared to untreated cell control wells, and the 50% cytotoxic concentration (CC50) is defined as the concentration of the drug at which the cell/tissue viability was reduced to 50% of the drug-free control value.
For orientation: Formazan colour is commonly taken as a measure of viable cells.

Structures can show the parent of a compound that is named as a salt.

Turning to `CO/N=C(\c1ccc(Br)cc1)C1CCN(C2(C)CCN(C(=O)c3c(C)ncnc3C)CC2)CC1` [form 1], the “onset of thermal degradation” value in data set [1] was 276 °C. For the same compound, in data set [2], the “relative thermodynamic stability of forms 1 and 2” value is “more thermodynamically stable form”.
Consider `CCC[C@@H](c1ccc(C(F)(F)F)cc1)N1CCN(C2(C)CCN(C(=O)c3c(C)ncnc3C)CC2)C[C@@H]1C` [Compound 28A], for which the “Solubility (percent in parentheses)” value was ≥ 3.4% in data set [3] (PEG 400, 1.12 g/cm^3) and ≥ 3.6% in data set [3] (PG (propyleneglycol), 1.038 g/cm^3). The solubility in data set [3] (organic solvent or mixture, PEG 400) was ≥ 39 mg/mL; in data set [3] (organic solvent or mixture, PG (propyleneglycol)), ≥ 38.4 mg/mL; in data set [3] (pH 4.4, aqueous buffer, pH 4.4 citrate buffer) it was ≥ 11.4 mg/mL; in data set [3] (pH 7.5, aqueous buffer, pH 7.5 phosphate buffer) it was < 0.33 mg/mL; in data set [3] (water, DI H20), ≥ 3.85 mg/mL.
`CO/N=C(\c1ccc(Br)cc1)C1CCN(C2(C)CCN(C(=O)c3c(C)ncnc3C)CC2)CC1` [Compound 5L Tartrate]: the concentration for half-maximal inhibition (IC50) in the data set on HIV-1BaL is 0.119 ± 0.0924 µM. Further, in data set [4], the 50% cytotoxic concentration (CC50) was 476 ± 117 µM.
